Laboratory results published in patent US11530244B2, “Cyclic polypeptides for PCSK9 inhibition” (priority 2018, dated 2022).
Starred links: 1 amine or outer side, 2 acyl side, 3 side chain; linkers in the order of their positions; H or OH if unused. Positions of bridges follow the written chain, without caps; N, C: chain ends. Non-standard residues stand in square brackets, D forms with d. Residues, ends and D or L forms follow the SMILES beside them. ξ: configuration not given here. X5 = O=C([C@@H]1C[C@H](SCc2ccc(C[*:3])cc2)CN1[*:1])[*:2]; NHCH2(1,3-C6H4)CH2CO = O=C(Cc1cccc(CN[*:1])c1)[*:2]; Pro(cis-4-OPh) = O=C(O)[C@@H]1C[C@H](Oc2ccccc2)CN1; Trp(5-OH) = N[C@@H](Cc1c[nH]c2ccc(O)cc12)C(=O)O; Trp(5-F) = N[C@@H](Cc1c[nH]c2ccc(F)cc12)C(=O)O; Phe(4-CH2NH2) = NCc1ccc(C[C@H](N)C(=O)O)cc1; Nle(6-COOH) = N[C@@H](CCCCC(=O)O)C(=O)O; X4 = O=C(CCSCc1cccc(CSCCN[*:1])c1)[*:2]; mXylylene = c1cc(C[*:1])cc(C[*:2])c1; AEF = NCCOc1ccc(C[C@H](N)C(=O)O)cc1; d(aThr) = C[C@@H](O)[C@@H](N)C(=O)O; αMeP = C[C@@]1(C(=O)O)CCCN1; hSer = N[C@@H](CCO)C(=O)O; ξD = NC(CC(=O)O)C(=O)O; Mpa = O=C(O)CCS

Tests used:
Assay type in all cases: binding
[1] = molecular target: human PCSK9 / human LDLR EGFa domain interaction (Homo sapiens (Human), UniProt Q8NBP7); assay: TR-FRET assay of inhibition of the PCSK9-LDLR protein-protein interaction; details: TR-FRET, 20 nM human PCSK9, 20 nM human LDLR EGFa domain, 2 hours room temperature; read-out: IC50
Chain of human PCSK9 / human LDLR EGFa domain interaction (Q8NBP7 153-692): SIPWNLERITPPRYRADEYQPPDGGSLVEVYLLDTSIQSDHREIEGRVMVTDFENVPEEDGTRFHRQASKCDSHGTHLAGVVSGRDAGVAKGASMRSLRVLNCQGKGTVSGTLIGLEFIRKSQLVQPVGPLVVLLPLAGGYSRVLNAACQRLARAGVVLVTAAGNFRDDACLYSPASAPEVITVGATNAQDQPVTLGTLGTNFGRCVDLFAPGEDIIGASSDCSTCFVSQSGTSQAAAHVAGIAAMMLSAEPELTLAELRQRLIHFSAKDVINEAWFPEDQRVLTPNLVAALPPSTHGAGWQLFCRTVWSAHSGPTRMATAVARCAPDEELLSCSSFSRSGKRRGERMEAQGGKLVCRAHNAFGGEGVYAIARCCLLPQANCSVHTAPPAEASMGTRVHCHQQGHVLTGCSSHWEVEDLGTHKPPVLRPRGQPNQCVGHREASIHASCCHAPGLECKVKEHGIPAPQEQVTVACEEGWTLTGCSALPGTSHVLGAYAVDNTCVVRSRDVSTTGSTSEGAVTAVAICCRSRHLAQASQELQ
Chain of human PCSK9 / human LDLR EGFa domain interaction (Q8NBP7 31-152 partner): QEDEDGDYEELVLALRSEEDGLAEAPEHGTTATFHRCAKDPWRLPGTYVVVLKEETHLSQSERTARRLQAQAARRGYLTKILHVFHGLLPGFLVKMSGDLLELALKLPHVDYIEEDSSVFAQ
Summary of the method: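 Avitag-biotinylated human PCSK9 (20 nM) and his-tagged human LDLR EGFa domain (20 nM) were incubated with 5 nM Ulight streptavidin and 5 nM europium anti-6×His for 2 h at room temperature. Buffer: 50 mM HEPES, 150 mM NaCl, 5 mM CaCl2, 0.01% BSA, 0.01% P20. IC50 from 4-parameter fit of dose-response.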

PCSK9 [2] = molecular target: T1, PCSK9 (Homo sapiens (Human), UniProt Q8NBP7); assay: PCSK9 Alexa FRET Standard assay (displacement of AlexaFluor647 tagged cyclic peptide Reagent A); details: PCSK9 Alexa FRET Standard assay, 0.5 nM PCSK9, 20 nM AF cyclic peptide Reagent A; read-out: IC50
T1 sequence (Q8NBP7 153-692): as the sequence (Q8NBP7 153-692) above
Summary of the method: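 TR-FRET displacement: 0.5 nM biotinylated PCSK9 with 1.25 nM Strep-Eu and 20 nM AlexaFluor-tagged cyclic peptide (final) in 50 mM HEPES pH 7.4, 0.15 M NaCl, 5 mM CaCl2, 0.01% BSA, 0.01% P20, ≥2 h at room temperature. IC50 from sigmoidal fit, converted to Ki via peptide KD; falling Eu counts flagged false positives.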

PCSK9 [3] = molecular target: T1, PCSK9; assay: PCSK9 Alexa FRET Plus assay (displacement of AlexaFluor647 tagged cyclic peptide Reagent B); details: Alexa FRET Plus, 0.5 nM PCSK9, 960 nM AF cyclic peptide Reagent B; read-out: IC50
Summary of the method: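 TR-FRET displacement with final 0.5 nM biotinylated PCSK9, 1.25 nM Strep-Eu and 960 nM AlexaFluor-tagged cyclic peptide in HEPES pH 7.4, NaCl, CaCl2, BSA, P20; ≥2 h at room temperature. IC50 from sigmoidal fit, converted to Ki using peptide KD. Falling europium counts flagged false positives.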

Structure (SMILES)	IC50 [1] [nM]	IC50 (PCSK9 [2]) [nM]	IC50 (PCSK9 [3]) [nM]
COc1ccc(C[C@@H]2NC(=O)[C@@H]([C@@H](C)O)NC(=O)[C@H](CCCCC(=O)O)NC(=O)[C@H](Cc3c[nH]c4ccc(F)cc34)NC(=O)[C@H](Cc3ccc(CN)cc3)NC(=O)[C@@H](C)NC(=O)[C@H](C)NC(=O)CCSCc3cccc(c3)CSCCNC(=O)[C@]3(C)CCCN3C2=O)cc1 [Compound 385] (cyclo(A[dA][Phe(4-CH2NH2)][Trp(5-F)][Nle(6-COOH)][d(aThr)]Y(Me)[αMeP][X4]))	0.1 to 100	0.11 to 100	0.1 to 100
NCCCC[C@@H]1NC(=O)CCSCc2cccc(c2)CSC[C@@H](C(N)=O)NC(=O)[C@@H]2C[C@H](Oc3ccccc3)CN2C(=O)[C@H](Cc2ccc(O)cc2)NC(=O)[C@H](Cc2cnc[nH]2)NC(=O)[C@H](CC(=O)O)NC(=O)[C@H](Cc2c[nH]c3ccc(F)cc23)NC(=O)[C@H](Cc2c[nH]c3ccc(F)cc23)NC(=O)CNC1=O [Compound 367] ([Mpa]KG[Trp(5-F)][Trp(5-F)]DHY[Pro(cis-4-OPh)]C-NH2; linker 1-10 via mXylylene)	0.1 to 100	100 to 1000	500 to 5000
NCCCC[C@@H]1NC(=O)CCCn2cc(nn2)CCC[C@@H](C(N)=O)NC(=O)[C@@H]2CCCN2C(=O)[C@H](Cc2ccc(O)cc2)NC(=O)[C@H](Cc2c[nH]cn2)NC(=O)[C@H](CC(=O)O)NC(=O)[C@H](Cc2c[nH]c3ccc(F)cc23)NC(=O)[C@H](Cc2c[nH]c3ccc(F)cc23)NC(=O)CNC1=O [Compound 152]	0.1 to 100	100 to 1000	500 to 5000
C[C@@]12CCCN1C(=O)[C@H](Cc1ccc(O)cc1)NC(=O)[C@H](Cc1cnc[nH]1)NC(=O)[C@H](CC(=O)O)NC(=O)[C@H](Cc1c[nH]c3ccc(F)cc13)NC(=O)[C@H](Cc1c[nH]c3ccc(F)cc13)NC(=O)CNC(=O)[C@H](CCO)NC(=O)CCSCc1cccc(c1)CSC[C@@H](C(N)=O)NC2=O [Compound 376] ([Mpa][hSer]G[Trp(5-F)][Trp(5-F)]DHY[αMeP]C-NH2; linker 1-10 via mXylylene)	0.1 to 100	0.11 to 100	100 to 500
NCCCC[C@@H]1NC(=O)CCSCc2ccc(cc2)CS[C@H]2C[C@@H](C(N)=O)N(C2)C(=O)[C@H](Cc2ccc(O)cc2)NC(=O)[C@H](Cc2cnc[nH]2)NC(=O)[C@H](CC(=O)O)NC(=O)[C@H](Cc2c[nH]c3ccc(F)cc23)NC(=O)[C@H](Cc2c[nH]c3ccc(F)cc23)NC(=O)CNC1=O [Compound 328] ([Mpa]KG[Trp(5-F)][Trp(5-F)]DHY[X5]-NH2; thioether 1-9)	0.1 to 100	100 to 1000	500 to 5000

Results, then the compound that gave them:

IC50 [1] [nM]	IC50 (PCSK9 [2]) [nM]	IC50 (PCSK9 [3]) [nM]	Structure (SMILES)
0.1 to 100	0.11 to 100	0.1 to 100	COc1ccc(C[C@@H]2NC(=O)[C@H](Cc3cnc[nH]3)NC(=O)[C@H](CC(=O)O)NC(=O)[C@H](Cc3c[nH]c4ccc(F)cc34)NC(=O)[C@H](Cc3c[nH]c4ccc(F)cc34)NC(=O)[C@@H](C)NC(=O)Cc3cccc(c3)CNC(=O)CC(C(=O)O)NC(=O)[C@]3(C)CCCN3C2=O)cc1 (stereo partly drawn) [Compound 401] ([NHCH2(1,3-C6H4)CH2CO][dA][Trp(5-F)][Trp(5-F)]DHY(Me)[αMeP][ξD]-OH; lactam N-9)
0.1 to 100	0.11 to 100	100 to 500	C[C@@]12CCCN1C(=O)[C@H](Cc1ccc(O)cc1)NC(=O)[C@H](Cc1cnc[nH]1)NC(=O)[C@H](CC(=O)O)NC(=O)[C@H](Cc1c[nH]c3ccc(O)cc13)NC(=O)[C@H](Cc1c[nH]c3ccc(F)cc13)NC(=O)CNC(=O)[C@H](CCCCN)NC(=O)CCSCc1cccc(c1)CSC[C@@H](C(N)=O)NC2=O [Compound 399] ([Mpa]KG[Trp(5-F)][Trp(5-OH)]DHY[αMeP]C-NH2; linker 1-10 via mXylylene)
0.1 to 100	0.11 to 100	100 to 500	COc1ccc(C[C@@H]2NC(=O)[C@H](Cc3cnc[nH]3)NC(=O)[C@H](CC(=O)O)NC(=O)[C@H](Cc3c[nH]c4ccc(F)cc34)NC(=O)[C@H](Cc3c[nH]c4ccc(F)cc34)NC(=O)[C@@H](C)NC(=O)[C@H](CCCCN)NC(=O)[C@@H](NC(C)=O)CC(=O)NCCOc3ccc(cc3)C[C@@H](C(N)=O)NC(=O)[C@]3(C)CCCN3C2=O)cc1 [Compound 349] (Ac-DK[dA][Trp(5-F)][Trp(5-F)]DHY(Me)[αMeP][AEF]-NH2; lactam 1-10)
